Like-named read-outs stand apart in the source and are kept apart here.
Columns and labels:
[1] = target: T1, GPR40 (Homo sapiens (Human), UniProt O14842); assay: GPR40 protein activity by intracellular calcium concentration (Fluo-4, Flexstation 3) in transfected HEK-293 cells; assay type: cell-based; settings: HEK-293 cells transfected with human GPR40, intracellular calcium
Protocol: The GPR40 protein activity according to the novel 3-(4-(benzyloxy)phenyl)hex-4-inoic acid derivative of the present invention was measured by investigating the changes in intracellular calcium concentration affected by the GRP40 activation. First, HEK-293 cells were transfected with human GPR40 DNA (Origene, RC218370) by using Fugene HD (Promega, E2311). […] 24 hours later, the cell culture medium was replaced with Dulbecco's Modified Eagle Medium (DMEM, 50 μl/well) supplemented with 1% fetal bovine serum (FBS). To measure the calcium concentration, 50 μl of Fluo-4 reagent (Invitrogen, F10471) was added to each well, followed by culture in a 37° C. incubator for 2 hours. […] 2 hours after the culture began, those prepared samples were automatically injected to the cells by using Flexstation 3 (Molecular Devices). Then, intracellular calcium concentration was measured for 120 seconds by using SoftMax® Pro software. At this time, dimethylsulfoxide (DMSO) was injected to the cells for the non-treated group, followed by measuring the calcium concentration therein. The GPR40 protein activity was calculated by the below mathematical formula 1 with the results of calcium concentration measurement. GPR40 activity=(intracellular calcium concentration increased by the sample)/(intracellular calcium concentration of the non-treated group)×100 [Mathematical Formula 1]

[2] = target: CYP3A4 (Homo sapiens (Human), UniProt P08684); assay: CYP inhibition (BD GENTEST kit); assay type: in vitro ADME; settings: pH 7.4, read-out: CYP inhibition (%) 3A4
From the text: (§1) CYP is the enzyme involved in drug metabolism. So, the inhibition of this enzyme can change the prediction of dose of a drug and toxicity caused by the co-treatment with other drugs. Therefore, the inventors measured the inhibitory effect of the compounds of Examples of the invention on endogenous CYP3A4, CYP2C9, CYP1A2, CYP2D6, and CYP2C19. At this time, Invitrogen (P2862) was used as the CYP2D6 inhibition kit, and BD GENTEST (459100, 459300, 459400, 459500) was used as the CYP1A2, CYP2C9, CYP2C19, and CYP3A4 inhibition kit. To prepare the Invitrogen kit, the test sample was diluted in distilled water at 2.5× of the final experimental concentration.
(§2) The test sample for BD GENTEST kit was diluted in acetonitrile at 50× of the final experimental concentration. NADPH-coenzyme mixture was prepared by diluting the coenzyme, G6PDH, and regulatory protein included in the kit with distilled water at the concentration instructed by the kit. The prepared 50× sample (4 μL) and the NADPH-coenzyme mixture (96 μL) were mixed in each well of U-bottom 96-well plate, followed by pre-culture for 10 minutes in a 37° C. incubator. Enzyme/substrate mixed solution was prepared by diluting the buffer (0.5 M potassium phosphate, pH 7.4), each CYP450 enzyme/substrate mixed solution included in the kit with distilled water at the instructed concentration. Upon completion of the pre-culture, 100 μL of the enzyme/substrate mixed solution was added in each well of the plate, followed by culture in a 37° C. incubator for 15 minutes (CYP 1A2), 30 minutes (CYP 3A4 and CYP 2C19) or 1 and half hours (CYP 2C9). Upon completion of the reaction, the reactant was transferred onto the white plate, and then fluorescence was measured with a microplate reader (CYP 1A2 and CYP 2C19 excitation wavelength: 410 nm, absorption wavelength: 460 nm; CYP 2C9 and CYP 3A4 excitation wavelength: 409 nm, absorption wavelength: 530 nm). The values obtained above were converted into % as the inhibition rate of the sample by the value of the non-treated group.

[3] = target: CYP2D6 (Homo sapiens (Human), UniProt P10635); assay: CYP inhibition (Invitrogen Vivid kit); assay type: in vitro ADME; settings: probe Vivid CYP450 substrate, read-out: CYP inhibition (%) 2D6
From the text: as §1
P450 BACULOSOMES® reagent and reproducer (100×) included in Invitrogen kit were diluted in Vivid® CYP450 reaction buffer (2×) at the concentration that matched the target CYP450. The prepared 2.5× sample (80 μL) and the diluted P450 BACULOSOMES® reagent mixture (100 μL) were mixed in each well of U-bottom 96-well plate, followed by pre-culture for 20 minutes. Vivid® CYP450 substrate and NADP+ (100×) were diluted in Vivid® CYP450 reaction buffer (2×) at the concentration that matched the target CYP450 and the substrate. Upon completion of the pre-culture, substrate-NADP (nicotinamide adenine dinucleotide phosphate) mixed solution (20 μL) was added thereto, followed by reaction for 1 hour. Upon completion of the reaction, the reactant was transferred onto the white plate, and then fluorescence was measured with a microplate reader (CYP 2D6 excitation wavelength: 400 nm, absorption wavelength: 502 nm). […]

[4] = target: CYP2C19 (Homo sapiens (Human), UniProt P33261); assay: CYP inhibition (BD GENTEST kit); assay type: in vitro ADME; settings: pH 7.4, read-out: CYP inhibition (%) 2C19
Protocol: as §1, with “At this time, Invitrogen (P2862) was used as the CYP2D6 inhibition kit, and BD GENTEST (459100, 459300, 459400, 459500) was used as the CYP1A2, CYP2C9, CYP2C19, and CYP3A4 inhibition kit.” left out
as §2, with “Upon completion of the reaction, the reactant was transferred onto the white plate, and then fluorescence was measured with a microplate reader (CYP 1A2 and CYP 2C19 excitation wavelength: 410 nm, absorption wavelength: 460 nm; CYP 2C9 and CYP 3A4 excitation wavelength: 409 nm, absorption wavelength: 530 nm).” left out

[5] = target: CYP1A2 (Homo sapiens (Human), UniProt P05177); assay: CYP inhibition (BD GENTEST kit); assay type: in vitro ADME; settings: pH 7.4
Protocol: as §1, with “At this time, Invitrogen (P2862) was used as the CYP2D6 inhibition kit, and BD GENTEST (459100, 459300, 459400, 459500) was used as the CYP1A2, CYP2C9, CYP2C19, and CYP3A4 inhibition kit.” left out
as §2, with “Upon completion of the reaction, the reactant was transferred onto the white plate, and then fluorescence was measured with a microplate reader (CYP 1A2 and CYP 2C19 excitation wavelength: 410 nm, absorption wavelength: 460 nm; CYP 2C9 and CYP 3A4 excitation wavelength: 409 nm, absorption wavelength: 530 nm).” left out

[6] = target: CYP2C9 (Homo sapiens (Human), UniProt P11712); assay: CYP inhibition (BD GENTEST kit); assay type: in vitro ADME; settings: pH 7.4, read-out: CYP inhibition (%) 2C9
Protocol: as §1, with “At this time, Invitrogen (P2862) was used as the CYP2D6 inhibition kit, and BD GENTEST (459100, 459300, 459400, 459500) was used as the CYP1A2, CYP2C9, CYP2C19, and CYP3A4 inhibition kit.” left out
as §2, with “Upon completion of the reaction, the reactant was transferred onto the white plate, and then fluorescence was measured with a microplate reader (CYP 1A2 and CYP 2C19 excitation wavelength: 410 nm, absorption wavelength: 460 nm; CYP 2C9 and CYP 3A4 excitation wavelength: 409 nm, absorption wavelength: 530 nm).” left out

[7] = target: T1, GPR40; assay: Calcium flux GPCR agonist assay (Millipore GPCR profiler, FLIPR TETRA)
Protocol: The compounds of Examples of the invention dissolved in DMSO (dimethyl sulfoxide), PBS (phosphate buffered saline), and DW (distilled water), etc, were diluted three-times with EMD Millipore's GPCR profiler assay buffer. […] Each well was filled with EMD Millipore's GPCR profiler assay buffer. The said EMD Millipore's GPCR profiler assay buffer was HBSS (Hanks Balanced Salt Solution) containing 20 mM HEPES (4-(2-hydroxyethyl)-1-piperazineethanesulfonic acid) and 2.5 mM Probenecid (4-(dipropylsulfamoyl)benzoic acid), whose pH was regulated as 7.4.
The compounds of Examples were duplicated at each concentration. […] Agonist assay was performed by using FLIPR^TETRA. Fluorescence and luminescence baseline were measured. […] To measure the activity of those compounds of Examples, GPCR activity assay was performed for 180 seconds.
When the assay data were not satisfactory, an additional experiment was performed.
All the concentration dependent graphs were made by using GraphPad Prism. The graph was modified by Sigmoidal dose response.

[8] = CYP3A4 enzyme of BD GENTEST inhibition kit
[9] = P450 BACULOSOMES reagent (Invitrogen Vivid CYP2D6 kit P2862)
[10] = CYP2C19 enzyme of BD GENTEST inhibition kit
[11] = CYP2C9 enzyme of BD GENTEST inhibition kit
[12] = CYP3A4 enzyme of the BD GENTEST CYP3A4 inhibition kit
[13] = CYP2D6 P450 BACULOSOMES reagent (Invitrogen kit P2862)
[14] = CYP2C19 enzyme of the BD GENTEST CYP2C19 inhibition kit
[15] = CYP2C9 enzyme of the BD GENTEST CYP2C9 inhibition kit

CYP2C19, sequence (P33261 whole entry): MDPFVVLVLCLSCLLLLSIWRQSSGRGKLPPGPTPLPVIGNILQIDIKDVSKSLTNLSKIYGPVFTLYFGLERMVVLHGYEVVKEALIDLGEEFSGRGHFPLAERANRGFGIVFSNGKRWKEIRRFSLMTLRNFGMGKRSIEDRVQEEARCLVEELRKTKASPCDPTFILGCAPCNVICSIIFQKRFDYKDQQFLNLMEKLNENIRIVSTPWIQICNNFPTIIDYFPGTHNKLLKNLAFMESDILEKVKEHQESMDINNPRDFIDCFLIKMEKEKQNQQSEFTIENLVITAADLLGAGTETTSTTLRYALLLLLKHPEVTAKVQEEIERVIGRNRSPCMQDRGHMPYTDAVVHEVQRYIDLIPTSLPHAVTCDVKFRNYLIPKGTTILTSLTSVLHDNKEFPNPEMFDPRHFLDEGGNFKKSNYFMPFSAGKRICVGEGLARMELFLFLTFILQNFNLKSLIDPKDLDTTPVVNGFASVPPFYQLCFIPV
CYP2C9, sequence (P11712 whole entry): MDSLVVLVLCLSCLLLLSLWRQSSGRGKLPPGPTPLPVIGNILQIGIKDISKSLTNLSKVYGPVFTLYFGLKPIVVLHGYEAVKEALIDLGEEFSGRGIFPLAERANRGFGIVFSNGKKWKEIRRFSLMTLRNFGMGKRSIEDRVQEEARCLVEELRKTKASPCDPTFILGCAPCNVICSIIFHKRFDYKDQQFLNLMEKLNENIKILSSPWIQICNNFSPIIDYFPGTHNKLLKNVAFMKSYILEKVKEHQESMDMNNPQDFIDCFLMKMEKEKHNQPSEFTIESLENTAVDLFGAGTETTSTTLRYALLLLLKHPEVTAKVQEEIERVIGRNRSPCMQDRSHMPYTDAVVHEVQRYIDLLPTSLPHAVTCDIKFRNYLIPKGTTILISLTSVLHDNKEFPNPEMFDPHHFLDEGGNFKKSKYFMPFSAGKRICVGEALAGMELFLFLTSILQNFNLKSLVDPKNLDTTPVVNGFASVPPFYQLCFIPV
CYP3A4, sequence (P08684 whole entry): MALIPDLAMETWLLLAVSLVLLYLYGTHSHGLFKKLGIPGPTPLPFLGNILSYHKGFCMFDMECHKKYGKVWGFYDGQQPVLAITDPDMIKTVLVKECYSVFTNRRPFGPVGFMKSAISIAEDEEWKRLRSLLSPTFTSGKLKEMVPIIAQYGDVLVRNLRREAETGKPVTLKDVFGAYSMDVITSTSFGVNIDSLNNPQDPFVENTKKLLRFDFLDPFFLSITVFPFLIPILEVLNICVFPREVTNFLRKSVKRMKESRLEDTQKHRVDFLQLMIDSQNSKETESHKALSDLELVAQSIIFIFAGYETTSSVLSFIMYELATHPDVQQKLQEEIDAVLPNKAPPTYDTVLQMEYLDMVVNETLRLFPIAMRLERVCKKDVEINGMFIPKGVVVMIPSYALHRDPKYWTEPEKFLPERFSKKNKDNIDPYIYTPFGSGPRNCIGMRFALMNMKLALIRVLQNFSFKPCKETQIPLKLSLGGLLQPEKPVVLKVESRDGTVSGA
CYP2D6, sequence (P10635 whole entry): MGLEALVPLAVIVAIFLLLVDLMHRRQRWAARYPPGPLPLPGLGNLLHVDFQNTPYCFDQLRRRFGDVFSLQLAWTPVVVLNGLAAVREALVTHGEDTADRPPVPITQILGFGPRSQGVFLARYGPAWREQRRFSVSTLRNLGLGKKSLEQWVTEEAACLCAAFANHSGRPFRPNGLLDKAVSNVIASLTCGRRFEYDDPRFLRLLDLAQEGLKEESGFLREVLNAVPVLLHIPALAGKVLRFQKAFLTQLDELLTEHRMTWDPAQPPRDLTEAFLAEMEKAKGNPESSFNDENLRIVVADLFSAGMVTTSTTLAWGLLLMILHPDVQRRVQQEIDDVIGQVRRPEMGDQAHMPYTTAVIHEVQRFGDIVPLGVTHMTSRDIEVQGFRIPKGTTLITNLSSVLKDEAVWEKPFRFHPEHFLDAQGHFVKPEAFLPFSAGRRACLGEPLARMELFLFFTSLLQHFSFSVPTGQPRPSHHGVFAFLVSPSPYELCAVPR
CYP1A2, sequence (P05177 whole entry): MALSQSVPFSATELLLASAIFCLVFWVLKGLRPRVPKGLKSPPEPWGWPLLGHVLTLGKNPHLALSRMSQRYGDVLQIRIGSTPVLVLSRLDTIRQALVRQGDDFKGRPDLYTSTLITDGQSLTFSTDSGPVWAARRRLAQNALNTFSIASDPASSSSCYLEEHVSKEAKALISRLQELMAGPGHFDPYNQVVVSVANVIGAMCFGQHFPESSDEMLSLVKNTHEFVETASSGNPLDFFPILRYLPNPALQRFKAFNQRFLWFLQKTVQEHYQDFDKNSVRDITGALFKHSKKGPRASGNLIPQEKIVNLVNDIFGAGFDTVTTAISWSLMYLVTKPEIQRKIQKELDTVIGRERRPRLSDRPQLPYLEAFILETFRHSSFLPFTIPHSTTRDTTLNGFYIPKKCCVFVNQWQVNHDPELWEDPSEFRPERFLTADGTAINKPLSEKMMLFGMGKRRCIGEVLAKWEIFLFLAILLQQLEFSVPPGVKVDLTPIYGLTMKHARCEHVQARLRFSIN
T1 sequence (O14842 whole entry): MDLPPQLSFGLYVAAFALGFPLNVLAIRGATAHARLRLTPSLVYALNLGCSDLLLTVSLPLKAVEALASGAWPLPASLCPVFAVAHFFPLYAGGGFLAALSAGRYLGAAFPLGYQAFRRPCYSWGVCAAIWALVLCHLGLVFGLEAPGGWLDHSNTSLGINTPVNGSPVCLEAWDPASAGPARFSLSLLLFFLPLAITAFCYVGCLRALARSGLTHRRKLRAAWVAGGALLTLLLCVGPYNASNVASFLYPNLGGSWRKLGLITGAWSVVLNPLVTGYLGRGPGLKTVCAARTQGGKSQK

EC50 ([1]; read-out: EC50) | inhibition at 30 min, 10 µM [2, 8] | inhibition at 1 h, 10 µM [3, 9] | inhibition at 30 min, 10 µM [4, 10] | inhibition at 15 min, 10 µM [5] | inhibition at 1.5 h, 10 µM [6, 11] | EC50 [7] | inhibition at 30 min, 10 µM [2, 12] | inhibition at 1 h, 10 µM [3, 13] | inhibition at 30 min, 10 µM [4, 14] | inhibition at 1.5 h, 10 µM [6, 15] | EC50 ([1]; values in text, read-out: EC50, concentration promoting activation of GPR40 protein by 50%) | SMILES
> 300 nM | 42% | 63.2% | 34.5% | 0% | 43.9% | – | – | – | – | – | – | CC#C[C@@H](CC(=O)O)c1ccc(OCc2ccc(CN3CCC4(C=Cc5ccccc54)CC3)cc2)cc1 [Comparative Example 2, (3S)-3-(4-{[4-(1′H-spiro[indene-1,4′-piperidine]-1′-ylmethyl)benzyl]oxy}phenyl)hex-4-inoic acid, reference compound]
– | – | – | – | – | – | 27 nM | – | – | – | – | – | O=C(O)CCc1ccc(NCc2cccc(Oc3ccccc3)c2)cc1 [Comparative Example 3, 4-(3-phenoxybenzylamino)phenylpropionic acid, reference compound]
> 300 nM | – | – | – | 0% | – | – | 33.1% | 6% | 19.4% | 21.1% | – | CC#CC(CC(=O)O)c1ccc(OCc2ccc(C3=CCC4(CC3)OCCO4)cc2)cc1 (stereo not shown) [Example 3]
> 300 nM | 35% | 19.3% | 45.4% | 0% | 41.5% | – | – | – | – | – | – | CC#CC(CC(=O)O)c1ccc(OCc2cccc(C3=CCC(=O)CC3)c2)cc1 (stereo not shown) [Example 4, 3-(4-(3-(4-oxocyclohex-1-enyl)benzyloxy)phenyl)hex-4-ynoic acid]
< 200 nM | 15.5% | 13.9% | 3.7% | 4.3% | 47.1% | – | – | – | – | – | < 200 nM | CC#C[C@@H](CC(=O)O)c1ccc(OCc2cccc(C3=CCC4(CC3)OCCO4)c2)cc1 [Example 7, (3S)-3-(4-(3-(1,4-dioxaspiro[4,5]dec-7-en-8-yl)benzyloxy)phenyl)hex-4-ynoic acid]
200 to 300 nM | 27.3% | 16.1% | 46.5% | 4% | 75.9% | – | – | – | – | – | – | CC#C[C@@H](CC(=O)O)c1ccc(OCc2ccc(CN3CCc4ccccc4C3)cc2)cc1 [Example 21, (S)-3-(4-(4-((3,4-dihydroisoquinoline-2(1H)-yl)methyl)benzyloxy)phenyl)hex-4-ynoic acid]
> 300 nM | 14.1% | 2.3% | 13.2% | 0.7% | 31.5% | – | – | – | – | – | – | CC#C[C@@H](CC(=O)O)c1ccc(OCc2ccc(CN3CCC(c4ccccc4)CC3)cc2)cc1 [Example 26, (S)-3-(4-(4-((4-phenylpiperidine-1-yl)methyl)benzyloxy)phenyl)hex-4-ynoic acid]
200 to 300 nM | 0% | 18.2% | 9.7% | 0.7% | 26.7% | – | – | – | – | – | – | CC#C[C@@H](CC(=O)O)c1ccc(OCc2ccc(CN3CCN(c4ccc(OCOC)cc4)CC3)cc2)cc1 [Example 29, (S)-3-(4-(4-((4-(4-(methoxymethoxy)phenyl)piperazine-1-yl)methyl)benzyloxy)phenyl)hex-4-ynoic acid]
> 300 nM | 11.5% | 1.8% | 10.8% | 16.6% | 0% | – | – | – | – | – | – | CC#C[C@@H](CC(=O)O)c1ccc(OCc2ccc(CN3CCN(c4ccc(OCCCS(C)(=O)=O)cc4)CC3)cc2)cc1 [Example 36, (S)-3-(4-(4-((4-(4-(3-(methylsulfonyl)propoxy)phenyl)piperazine-1-yl)methyl)benzyloxy)phenyl)hex-4-ynoic acid]
– | – | – | – | 2.2% | – | – | 18.1% | 15.6% | 13.2% | 34.4% | – | CC#C[C@@H](CC(=O)O)c1ccc(OCc2ccc(CN3Cc4ccccc4C3)cc2)cc1 [Example 38, L-lysine (S)-3-(4-(4-(isoindoline-2-ylmethyl)benzyloxy)phenyl)hex-4-ynoate]
200 to 300 nM | 0% | 17.9% | 19.5% | 9.7% | 18.4% | – | – | – | – | – | – | CC#C[C@@H](CC(=O)O)c1ccc(OCc2ccc(CN3CCN(c4ccc(OC)cc4)CC3)cc2)cc1 [Example 40, (S)-3-(4-(4-((4-(4-methoxyphenyl)piperazine-1-yl)methyl)benzyloxy)phenyl)hex-4-ynoic acid]
